The source of these data is publication PMC9867315, “Enhanced Cytotoxic Activity of PEGylated Curcumin Derivatives: Synthesis, Structure–Activity Evaluation, and Biological Activity” (International Journal of Molecular Sciences, 2023).

Like-named read-outs stand apart in the source and are kept apart here.

Data set [1] deals with 5637 cells. As to the kind of experiment: Cell cycle distribution, propidium iodide flow cytometry. It counts as cell-based, human. The settings on record: for G2/M cell population: 5637, 6 µM, 24 h. As to the method:
The 5637 cells (0.4 × 10^6 cells/well) were seeded in 6-well plates and incubated overnight under standard cell culture conditions or in a hypoxia workstation. Then, the tested compound was added at a concentration of 4 µM, 5 µM, and 6 µM (for hypoxic conditions), and 6 µM, 8 µM, and 10 µM (for normoxic conditions), and incubated for 24 h. […] After incubation, cells were washed twice with PBS, trypsinized, and washed again with PBS. Cells were fixed with 70% ethanol at 4 °C. After fixation, the cells were washed twice with PBS and treated with RNAse (100 µg/mL) and PI (50 µg/mL) for 30 min at 37 °C in the dark. The samples were analyzed using BD FACSLyric™ (Becton Dickinson, Franklin Lakes, NJ, USA). Finally, cell cycle distribution was analyzed using flow cytometry. The percentages of cells in the G1, S, and G2/M phases were calculated using FlowJo software version 10.8.1 (Becton Dickinson, Ashland, OR, USA).

The nature of data set [2]: MTT cytotoxicity assay, MRC-5 normal lung fibroblasts. The settings on record: human, MRC-5 normal lung fibroblasts.
Procedure: (§3) Human urinary grade II carcinoma cell line (5637) and human urinary squamous cell carcinoma (SCaBER) were purchased from ATCC (Manassas, VA, USA). The MRC-5 cell line (normal human lung fibroblasts) was purchased from the European Collection of Authenticated Cell Cultures (ECACC) distributed by Sigma-Aldrich. The 5637 cells were grown in RPMI, SCaBER cells were cultured in EMEM, and MRC-5 in DMEM. All media were supplemented with 10% (v/v) FBS, 2 mM L-glutamine, 100 U/mL penicillin, and 10 mg/mL streptomycin in a humidified atmosphere of 5% CO2 at 37 °C.
(§4) 5637 and SCaBER cells were seeded at 15 × 10^3 cells/well, while MRC-5 was at a density of 20 × 10^3 cells/well and incubated overnight. In the case of the hypoxia experiments, cells were transferred to a hypoxia chamber and incubated for 24 h. […] The cytotoxic activity of tested compounds was measured after 24 h and 48 h using the MTT assay. After incubation lasting 24 h and 48 h, the cells were washed twice with PBS, and 170 µL of MTT (final concentration of 0.59 mg/mL in cell culture medium) was added to each well. Cells were incubated for 1.5 h under standard cell culture conditions. Then, DMSO was added to dissolve the formazan crystals. The absorbance was measured at a wavelength of 570 nm with a plate reader (Biotek Instruments, Elx-800, Winooski, VT, USA). Cell viability was calculated as a percentage of the control. All experiments were repeated at least two times (two independent experiments performed in hexaplicate). The IC50 values were determined using GraphPad 8.0 software (GraphPad Software, Inc., La Jolla, CA, USA).
In data set [3] the test system is MRC-5 cells. The description is as above.
Procedure: as §3, §4
For data set [4], the system named is 5637 cells. As to the kind of experiment: Proteome Profiler Human Cell Stress Array. It counts as cell-based. The settings on record: 5637, hypoxic conditions, 4 µM, 18 h, compared to control cells. The method, then: The 5637 cells were seeded in a Petri dish (Ø 35 mm) at a density of 0.4 × 10^6 cells/dish and incubated overnight. Cells were treated with compound 5 at a concentration of 4 µM (hypoxia) and 8 µM (normoxia) for 18 h. […] After incubation, cells were lysed in a lysis buffer containing pepstatin A, leupeptin, and aprotinin (each at a concentration of 10 µg/mL). Total protein was determined using a Pierce BCA protein assay Kit and stored at −80 °C until future use. A total of 300 µg of protein was then incubated with a human Proteome Profiler Human Cell Stress Array (Bio-Techne, Minneapolis, MN, USA) according to the manufacturer’s instructions. The membranes were visualized using the I-Bright Imaging System (Thermofisher Scientific, Waltham, MA, USA). The spot densitometric analysis was performed using Image Studio Lite (version 5.2) software (LI-COR Biosciences, Lincoln, NE, USA).

The subject of data set [5] is SCaBER cells. As to the kind of experiment: MTT cytotoxicity assay, SCaBER bladder cancer cells. The settings on record: normoxia. It counts as cell-based, human.
In data set [6] the test system is SCaBER cells. The description is as above. It counts as cell-based, human. The settings on record: hypoxia (1% oxygen). As to the method:
(§1) For the hypoxia experiments, cells were cultured at 1% O2 (5% CO2/94% N2; 37 °C) using a hypoxia station (Whitley H35 hypoxystation; Don Whitley, Bingley, UK). All media used in these experiments were incubated under hypoxic conditions before being added to the cells.
(§2) Then, DMSO was added to dissolve the formazan crystals.

Data set [7] concerns 5637 cells. As to the kind of experiment: MTT cytotoxicity assay, 5637 bladder cancer cells. It counts as cell-based, human. The method, then: as §1, §2
Data set [8] has as its system human peripheral blood mononuclear cell (PBMC). Also on record: method as in ref 38 (Deters et al.). Particulars: ref 38 (Deters et al.); cited from earlier work.
The test system of data set [9] is MRC-5 cells. The settings on record: 10 µM.
Procedure: as §3, §4
The test system of data set [10] is T24 cell line. Also on record: method as in ref 53 (Park et al.). Particulars: T24 cells, 12.5 µM; ref 53 (Park et al.); cited from earlier work.
Details of data set [11]: method as in ref 41 (Wang et al.). The settings on record: ref 41 (Wang et al.), cited from earlier work.
Setting [12] is: 5637, 24 h, hypoxic conditions, vs control.
Where [13] appears, read: Homo sapiens, 24 h, 24 h incubation.
The mark [14] stands for this setting: Homo sapiens, 48 h, 48 h incubation.
Where [15] appears, read: Homo sapiens, 24 h, 5637, hypoxia (1% oxygen), 24 h incubation, MTT, read-out: IC50.
Where [16] appears, read: Homo sapiens, 24 h, 5637, normoxia, 24 h incubation, MTT, read-out: IC50.
[17] abbreviates: Homo sapiens, 48 h, 5637, hypoxia (1% oxygen), 48 h incubation, MTT, read-out: IC50.
Setting [18] is: Homo sapiens, 48 h, 5637, normoxia, 48 h incubation, MTT, read-out: IC50.
The mark [19] stands for this setting: MRC-5, normoxia, 24 h incubation, MTT.
Where [20] appears, read: MRC-5, normoxia, 48 h incubation, MTT.
[21] abbreviates: 5637, hypoxia (1% oxygen), 24 h incubation, MTT, read-out: IC50.
Setting [22] is: 5637, hypoxia (1% oxygen), 48 h incubation, MTT, read-out: IC50.
Where [23] appears, read: 5637, normoxia, 24 h incubation, MTT, read-out: IC50.
[24] abbreviates: 5637, normoxia, 48 h incubation, MTT, read-out: IC50.

Take `COCCOCCOCCOc1ccc(/C=C/C(=O)/C=C(O)/C=C/c2ccc(OCCOCCOCCOC)c(OC)c2)cc1OC` [Compound 5, (1E,4Z,6E)-5-hydroxy-1,7-bis(3-methoxy-4-{2-[2-(2-methoxyethoxy)ethoxy]ethoxy}phenyl)-hepta-1,4,6-trien-3-one]: the G2/M cell population in data set [1] (hypoxia) is recorded as 38%; in [1] (normoxia), 24%. For the same compound, the “number of cells in the G0/G1 phase” value in [1] (setting [12]) was “significantly decreased”. Further, the “number of cells in the S phase” value in data set [1] (setting [12]) is “slightly increased”. Besides, in [2], the viability (usually the share of living cells, or the viability signal relative to a control) at 10 µM is about 100%. In addition, the IC50 in data set [3] (Homo sapiens, MRC5, 24 h) is over 10 µM; in data set [3] (Homo sapiens, MRC5, 48 h), over 10 µM; in data set [5] (setting [13]), 8.53 ± 0.16 µM; in data set [5] (setting [14]), 7.97 ± 0.4 µM; in data set [6] (setting [13]) it was 7.27 ± 0.2 µM; in data set [6] (setting [14]), 7.58 ± 0.91 µM. Also, the IC50 in data set [7] (setting [15]) worked out at 6.43 ± 0.26 µM; in data set [7] (setting [16]), 8.4 ± 0.21 µM; in data set [7] (Homo sapiens, 24 h, 5637, panel A (normoxia, 5-10 µM), 24 h, read-out: IC50 (narrow concentration range)) it was 7.89 ± 0.47 µM; in data set [7] (Homo sapiens, 24 h, 5637, panel B (hypoxia 1% oxygen, 3-8 µM), 24 h, read-out: IC50 (narrow concentration range)), 5.29 ± 0.02 µM; in data set [7] (setting [17]), 5.02 ± 1.06 µM; in data set [7] (setting [18]), 7.91 ± 0.46 µM. Also, the IC50 was 7.82 ± 1 µM in [7] (Homo sapiens, 48 h, 5637, panel A (normoxia, 5-10 µM), 48 h, read-out: IC50 (narrow concentration range)) and 5.29 ± 0.16 µM in [7] (Homo sapiens, 48 h, 5637, panel B (hypoxia 1% oxygen, 3-8 µM), 48 h, read-out: IC50 (narrow concentration range)). Also, the “expression of HIF-1α, HIF-2α, ADAMTS-1, phospho-JNK, p21, and phospho-HSP27” value in data set [4] is “increased”.

Turning to `COCCOCCOCCOc1cc(/C=C/C(=O)/C=C(O)/C=C/c2ccc(OC)c(OCCOCCOCCOC)c2)ccc1OC` [Compound 7, (1E,4Z,6E)-5-hydroxy-1,7-bis(4-methoxy-3-{2-[2-(2-methoxyethoxy)ethoxy]ethoxy}phenyl)-hepta-1,4,6-trien-3-one], the viability at 10 µM in data set [7] (Homo sapiens, 5637, 10 µM, 24 h incubation, preliminary screen, read-out: cell viability) was over 60%.

Consider `COc1ccc(/C=C/C(=O)/C=C(O)/C=C/c2ccc(OC)c(O)c2)cc1O` [Isocurcumin (13), (1E,4Z,6E)-5-hydroxy-1,7-bis(4-methoxy-3-hydroxyphenyl)-hepta-1,4,6-trien-3-one], for which the IC50 is 2.8 µM in [8]; over 20 µM in data set [3] (Homo sapiens, MRC5, 24 h); over 20 µM in data set [3] (Homo sapiens, MRC5, 48 h); 14.7 ± 0.88 µM in data set [5] (setting [13]); 14.3 ± 0.41 µM in data set [5] (setting [14]); 14.2 ± 0.23 µM in [6] (setting [13]). Besides, the IC50 in [6] (setting [14]) was 11.94 ± 0.09 µM; in data set [7] (setting [15]), 13.1 ± 2.89 µM; in data set [7] (setting [16]) it was 10.8 ± 3.46 µM; in [7] (setting [17]), 10.1 ± 3.12 µM; in data set [7] (setting [18]) it was 6.71 ± 1.7 µM.

Take “(1E,3Z,6E)-1,7-bis(3-methoxy-4-hydroxyphenyl)-5-oxohepta-1,3,6-trien-3-yl difluoroborinate [Compound 10]”: the IC50 in data set [3] (setting [19]) is over 10 µM; in data set [3] (setting [20]) it was 7.84 ± 0.15 µM; in data set [5] (24 h incubation) it was 2.59 ± 0.16 µM; in data set [5] (48 h incubation), 2.71 ± 0.34 µM; in data set [6] (24 h incubation) it was 2.35 ± 0.22 µM; in data set [6] (48 h incubation), 2.6 ± 0.03 µM. For the same compound, the IC50 in data set [7] (setting [21]) was determined as 1.96 ± 0.47 µM; in data set [7] (setting [22]), 2.12 ± 0.33 µM; in [7] (setting [23]) it was 2.25 ± 0.08 µM; in data set [7] (setting [24]), 2.17 ± 0.24 µM.

Regarding “(1E,3Z,6E)-1,7-bis(3-methoxy-4-{2-[2-(2-methoxyethoxy)ethoxy]ethoxy}phenyl)-5-oxohepta-1,3,6-trien-3-yl difluoroborinate [Compound 4]”, the IC50 in data set [3] (setting [19]) is over 10 µM; in data set [3] (setting [20]), over 10 µM; in [5] (24 h incubation) it was 4.18 ± 1.3 µM; in data set [5] (48 h incubation) it was 4.57 ± 2.07 µM; in [6] (24 h incubation) it was 2.42 ± 0.23 µM; in data set [6] (48 h incubation), 2.86 ± 0.62 µM. The IC50 in data set [7] (setting [21]) came to 2.58 ± 0.11 µM; in [7] (setting [22]) it was 2.96 ± 0.23 µM; in [7] (setting [23]), 3.31 ± 0.34 µM; in data set [7] (setting [24]), 3.27 ± 0.45 µM. For the same compound, the cell viability (commonly the share of living cells, or the viability signal relative to a control) in data set [9] is listed as 66%.

On to “(1E,3Z,6E)-1,7-bis(4-methoxy-3-hydroxyphenyl)-5-oxohepta-1,3,6-trien-3-yl difluoroborinate [Compound 12]”, for which the IC50 in data set [3] (setting [19]) worked out at 9.63 ± 2.61 µM; in data set [3] (setting [20]), 5.8 ± 0.77 µM; in data set [5] (24 h incubation), 2.28 ± 0.13 µM; in data set [5] (48 h incubation), 2.21 ± 0.17 µM; in data set [6] (24 h incubation), 3.26 ± 1.05 µM; in data set [6] (48 h incubation), 4.25 ± 1.94 µM. The IC50 in [7] (setting [21]) is 2.32 ± 0.29 µM; in data set [7] (setting [22]), 2.64 ± 0.54 µM; in [7] (setting [23]), 2.48 ± 0.55 µM; in data set [7] (setting [24]) it was 2.4 ± 0.45 µM.

Consider “(1E,3Z,6E)-1,7-bis(4-methoxy-3-{2-[2-(2-methoxyethoxy)ethoxy]ethoxy}phenyl)-5-oxohepta-1,3,6-trien-3-yl difluoroborinate [Compound 6]”, for which the IC50 was over 10 µM in [3] (setting [19]); 9.34 ± 0.76 µM in data set [3] (setting [20]); 4.11 ± 1.4 µM in data set [5] (24 h incubation); 4.35 ± 1.97 µM in data set [5] (48 h incubation); 5.85 ± 1.98 µM in data set [6] (24 h incubation); 7.28 ± 1.81 µM in data set [6] (48 h incubation). The IC50 amounted to 2.37 ± 0.19 µM in [7] (setting [21]), 2.66 ± 0.07 µM in [7] (setting [22]), 2.6 ± 0.99 µM in data set [7] (setting [23]) and 2.63 ± 0.77 µM in data set [7] (setting [24]).

“(1E,4Z,6E)-5-hydroxy-1,7-bis (3-methoxy-4-hydroxyphenyl)-hepta-1,4,6-trien-3-one [Curcumin (11), reference compound]”: the “cell population in G2/M” value in [10] is listed as 64%. Moreover, the IC50 in data set [8] was 2.8 µM; in data set [3] (setting [19]), 70.4 ± 12.5 µM; in [3] (setting [20]), 45.3 ± 3.18 µM; in data set [5] (24 h incubation) it was 13.1 ± 0.68 µM; in [5] (48 h incubation), 12.6 ± 0.62 µM; in [6] (24 h incubation), 11.6 ± 0.83 µM. The IC50 in [6] (48 h incubation) turned out to be 11.3 ± 0.19 µM; in [7] (setting [21]), 12.1 ± 0.16 µM; in data set [7] (setting [22]) it was 13.3 ± 0.54 µM; in data set [7] (setting [23]), 12.7 ± 3.03 µM; in [7] (setting [24]), 12.9 ± 2.35 µM. Moreover, the curcumin decomposed result was “less than 20%” in [11] (cell culture medium in the presence of FCS, within 1 h); under 50% in data set [11] (cell culture medium in the presence of FCS, within 8 h); “about 90%” in [11] (serum-free medium, within 30 min).
